Results as given in patent publication US3970648A, “2-[2-(5-Nitro-2-furyl)vinyl]-4-(anilino)quinazolines” (Diamond Shamrock Corporation, priority 1974, dated 1976).

Key:
Assay type in all cases: cell-based
[1] = system: Bordetella bronchiseptica; experiment: Bactericide test, Bordetella bronchiseptica (agar streak plate)
Source text: (§1) Test formulations were examined for bactericidal and/or bacteriostatic activity against the test organisms shown in Tables A and B. These organisms were chosen as being representative of commercially important pathogens affecting animal agriculture. The antibiotic chlortetracycline was chosen as a positive control, since it has a broad spectrum of activity against a large number of organisms, and its activity can be used for comparative purposes.
(§2) Basic test formulations of the product of Examples I, II, III, and of chlortetracycline were prepared by dissolving 16 mg (0.016 g) in 2.0 ml of stock emulsifier solution (0.25% Triton X-155 in acetone by volume) and making each solution up to 50 ml with deionized water. The concentration of the test compound in the basic formulation was 320 ppm. Lower concentrations of the test compound were obtained by diluting the basic formulation with a 4% solution of the stock emulsifier in deionized water so that each dilution in the series differed only in test compound content.
(§3) Nutrient-tryptic soy agar (NTA) consisting of 2.0% Difco Bactoagar 0.8% nutrient broth (Difco), and 0.5% tryptic soy broth (Difco) was prepared and sterilized by autoclaving. A 2 ml aliquot of each test formulation was added to 8 ml of molten NTA. This mixture was then plated in a sterile polystyrene petri dish (100 × 15 mm). After the agar was set, suspensions of each of the test organisms were simultaneously streaked onto the surface of the agar. The inoculated plates were incubated for 48 hr at 28°C. The inhibition of growth of each organism was rated by visual comparison with the organism developing on non-treated agar. Growth inhibition reported as per cent control was rated in three categories as follows: 0% control, growth equivalent to that on non-treated agar; 50% control, sparse development and separated colonies; 100% control, no visible growth or development of colonies.

[2] = system: Streptococcus group E; experiment: Bactericide test, Streptococcus group E (agar streak plate)
Source text: as §1, §2, §3

[3] = system: Streptococcus agalactiae; experiment: Bactericide test, Streptococcus agalactiae (agar streak plate)
Source text: as §1, §2, §3

[4] = system: Streptococcus faecalis; experiment: Bactericide test, Streptococcus faecalis (agar streak plate)
Source text: as §1, §2, §3
(§4) Test formulations of the product of Example IV were examined for bactericidal and/or bacteriostatic activity against the test organisms shown in Table B using the Bactericide Test described in Example V. The inhibition of organism growth with each diluted test formulation was rated visually by comparison with the organism developing on a non-treated control agar plate. Growth inhibition reported as per cent control was rated in three categories as follows: 0% control, growth equivalent to that on non-treated agar; 50% control is sparse development and separated colonies; and 100% control, development of individual colonies was not apparent.

[5] = system: Salmonella cholerasuis; experiment: Bactericide test, Salmonella cholerasuis (agar streak plate); details: Salmonella
Source text: as §1, §2, §3, §4

[6] = system: Salmonella gallinarum; experiment: Bactericide test, Salmonella gallinarum (agar streak plate); details: Salmonella enterica, GALLINARUM
Source text: as §1, §2, §3, §4

[7] = system: Staphylococcus aureus; experiment: Bactericide test, Staphylococcus aureus (agar streak plate); details: Staphylococcus aureus
Source text: as §1, §2, §3, §4

[8] = system: Salmonella typhimurium; experiment: Bactericide test, Salmonella typhimurium (agar streak plate); details: Salmonella enterica, TYPHIMURIUM
Source text: as §1, §2, §3

[9] = system: Erysipelothrix rhusiopathiae; experiment: Bactericide test, Erysipelothrix rhusiopathiae (agar streak plate)
Source text: as §1, §2, §3

[10] = system: Escherichia coli; experiment: Bactericide test, Escherichia coli (agar streak plate)
Source text: as §1, §2, §3, §4

[11] = system: Vibrio coli; experiment: Bactericide test, Vibrio coli (agar streak plate)
Source text: as §1, §2, §3

[12] = 100% inhibition at lower concentrations

O=[N+]([O-])c1ccc(C=Cc2nc(Nc3ccc(O)cc3)c3ccccc3n2)o1 [Example I, 2-[2-(5-nitro-2-furyl)vinyl]-4-(p-hydroxyanilino)quinazoline]
effectiveness compared with chlortetracycline (in words) [1, 12]: considerably more effective
inhibition at 0.125 ppm ([1]; Bordetella bronchiseptica, 0.125 ppm): 100%
inhibition at 0.25 ppm ([1]; Bordetella bronchiseptica, 0.25 ppm): 100%
inhibition at 0.5 ppm ([1]; Bordetella bronchiseptica, 0.5 ppm): 100%
inhibition at 1 ppm ([1]; Bordetella bronchiseptica, 1 ppm, read-out: % Inhibition): 100%
inhibition at 2 ppm ([1]; Bordetella bronchiseptica, 2 ppm): 100%
inhibition at 4 ppm ([1]; Bordetella bronchiseptica, 4 ppm, read-out: % Inhibition): 100%
inhibition at 8 ppm ([1]; Bordetella bronchiseptica, 8 ppm): 100%
inhibition at 16 ppm ([1]; Bordetella bronchiseptica, 16 ppm, read-out: % Inhibition): 100%
inhibition at 32 ppm ([1]; Bordetella bronchiseptica, 32 ppm): 100%
inhibition at 64 ppm ([1]; Bordetella bronchiseptica, 64 ppm, read-out: % Inhibition): 100%
inhibition at 0.125 ppm ([2]; 0.125 ppm): 100%
inhibition at 0.25 ppm ([2]; 0.25 ppm): 100%
inhibition at 0.5 ppm ([2]; 0.5 ppm): 100%
inhibition at 1 ppm ([2]; 1 ppm, read-out: % Inhibition): 100%
inhibition at 2 ppm ([2]; 2 ppm): 100%
inhibition at 4 ppm ([2]; 4 ppm, read-out: % Inhibition): 100%
inhibition at 8 ppm ([2]; 8 ppm): 100%
inhibition at 16 ppm ([2]; 16 ppm, read-out: % Inhibition): 100%
inhibition at 32 ppm ([2]; 32 ppm): 100%
inhibition at 64 ppm ([2]; 64 ppm, read-out: % Inhibition): 100%
effectiveness compared with chlortetracycline (in words) [2, 12]: considerably more effective
effectiveness compared with chlortetracycline (in words) [3, 12]: considerably more effective
inhibition at 0.125 ppm ([3]; Streptococcus agalactiae, 0.125 ppm): 100%
inhibition at 0.25 ppm ([3]; Streptococcus agalactiae, 0.25 ppm): 100%
inhibition at 0.5 ppm ([3]; Streptococcus agalactiae, 0.5 ppm): 100%
inhibition at 1 ppm ([3]; Streptococcus agalactiae, 1 ppm, read-out: % Inhibition): 100%
inhibition at 2 ppm ([3]; Streptococcus agalactiae, 2 ppm): 100%
inhibition at 4 ppm ([3]; Streptococcus agalactiae, 4 ppm, read-out: % Inhibition): 100%
inhibition at 8 ppm ([3]; Streptococcus agalactiae, 8 ppm): 100%
inhibition at 16 ppm ([3]; Streptococcus agalactiae, 16 ppm, read-out: % Inhibition): 100%
inhibition at 32 ppm ([3]; Streptococcus agalactiae, 32 ppm): 100%
inhibition at 64 ppm ([3]; Streptococcus agalactiae, 64 ppm, read-out: % Inhibition): 100%
effectiveness compared with chlortetracycline (in words) [4, 12]: considerably more effective
inhibition at 0.125 ppm ([4]; Enterococcus faecalis, 0.125 ppm): 100%
inhibition at 0.25 ppm ([4]; Enterococcus faecalis, 0.25 ppm): 100%
inhibition at 0.5 ppm ([4]; Enterococcus faecalis, 0.5 ppm): 100%
inhibition at 1 ppm ([4]; Enterococcus faecalis, 1 ppm, read-out: % Inhibition): 100%
inhibition at 2 ppm ([4]; Enterococcus faecalis, 2 ppm): 100%
inhibition at 4 ppm ([4]; Enterococcus faecalis, 4 ppm, read-out: % Inhibition): 100%
inhibition at 8 ppm ([4]; Enterococcus faecalis, 8 ppm): 100%
inhibition at 16 ppm ([4]; Enterococcus faecalis, 16 ppm, read-out: % Inhibition): 100%
inhibition at 32 ppm ([4]; Enterococcus faecalis, 32 ppm): 100%
inhibition at 64 ppm ([4]; Enterococcus faecalis, 64 ppm, read-out: % Inhibition): 100%
inhibition at 0.125 ppm ([5]; 0.125 ppm): 0%
inhibition at 0.25 ppm ([5]; 0.25 ppm): 0%
inhibition at 0.5 ppm ([5]; 0.5 ppm): 0%
inhibition at 1 ppm ([5]; 1 ppm, read-out: % Inhibition): 0%
inhibition at 2 ppm ([5]; 2 ppm): 0%
inhibition at 4 ppm ([5]; 4 ppm, read-out: % Inhibition): 0%
inhibition at 8 ppm ([5]; 8 ppm): 0%
inhibition at 16 ppm ([5]; 16 ppm, read-out: % Inhibition): 0%
inhibition at 32 ppm ([5]; 32 ppm): 0%
inhibition at 64 ppm ([5]; 64 ppm, read-out: % Inhibition): 0%
inhibition at 0.125 ppm ([6]; 0.125 ppm): 0%
inhibition at 0.25 ppm ([6]; 0.25 ppm): 0%
inhibition at 0.5 ppm ([6]; 0.5 ppm): 0%
inhibition at 1 ppm ([6]; 1 ppm): 0%
inhibition at 2 ppm ([6]; 2 ppm): 0%
inhibition at 4 ppm ([6]; 4 ppm): 0%
inhibition at 8 ppm ([6]; 8 ppm): 0%
inhibition at 16 ppm ([6]; 16 ppm): 0%
inhibition at 32 ppm ([6]; 32 ppm): 0%
inhibition at 64 ppm ([6]; 64 ppm): 0%
inhibition at 0.125 ppm ([7]; 0.125 ppm): 0%
inhibition at 0.25 ppm ([7]; 0.25 ppm): 0%
inhibition at 0.5 ppm ([7]; 0.5 ppm): 0%
inhibition at 1 ppm ([7]; 1 ppm, read-out: % Inhibition): 0%
inhibition at 2 ppm ([7]; 2 ppm): 0%
inhibition at 4 ppm ([7]; 4 ppm, read-out: % Inhibition): 0%
inhibition at 8 ppm ([7]; 8 ppm): 0%
inhibition at 16 ppm ([7]; 16 ppm, read-out: % Inhibition): 0%
inhibition at 32 ppm ([7]; 32 ppm): 0%
inhibition at 64 ppm ([7]; 64 ppm, read-out: % Inhibition): 0%
inhibition at 0.125 ppm ([8]; 0.125 ppm): 0%
inhibition at 0.25 ppm ([8]; 0.25 ppm): 0%
inhibition at 0.5 ppm ([8]; 0.5 ppm): 0%
inhibition at 1 ppm ([8]; 1 ppm, read-out: % Inhibition): 0%
inhibition at 2 ppm ([8]; 2 ppm): 0%
inhibition at 4 ppm ([8]; 4 ppm, read-out: % Inhibition): 0%
inhibition at 8 ppm ([8]; 8 ppm): 0%
inhibition at 16 ppm ([8]; 16 ppm, read-out: % Inhibition): 0%
inhibition at 32 ppm ([8]; 32 ppm): 0%
inhibition at 64 ppm ([8]; 64 ppm, read-out: % Inhibition): 0%
effectiveness compared with chlortetracycline (in words) [9, 12]: considerably more effective
inhibition at 0.125 ppm ([9]; Erysipelothrix rhusiopathiae, 0.125 ppm): 100%
inhibition at 0.25 ppm ([9]; Erysipelothrix rhusiopathiae, 0.25 ppm): 100%
inhibition at 0.5 ppm ([9]; Erysipelothrix rhusiopathiae, 0.5 ppm): 100%
inhibition at 1 ppm ([9]; Erysipelothrix rhusiopathiae, 1 ppm): 100%
inhibition at 2 ppm ([9]; Erysipelothrix rhusiopathiae, 2 ppm): 100%
inhibition at 4 ppm ([9]; Erysipelothrix rhusiopathiae, 4 ppm): 100%
inhibition at 8 ppm ([9]; Erysipelothrix rhusiopathiae, 8 ppm): 100%
inhibition at 16 ppm ([9]; Erysipelothrix rhusiopathiae, 16 ppm): 100%
inhibition at 32 ppm ([9]; Erysipelothrix rhusiopathiae, 32 ppm): 100%
inhibition at 64 ppm ([9]; Erysipelothrix rhusiopathiae, 64 ppm): 100%
inhibition at 0.125 ppm ([10]; 0.125 ppm): 0%
inhibition at 0.25 ppm ([10]; 0.25 ppm): 0%
inhibition at 0.5 ppm ([10]; 0.5 ppm): 0%
inhibition at 1 ppm ([10]; 1 ppm, read-out: % Inhibition): 0%
inhibition at 2 ppm ([10]; 2 ppm): 0%
inhibition at 4 ppm ([10]; 4 ppm, read-out: % Inhibition): 0%
inhibition at 8 ppm ([10]; 8 ppm): 0%
inhibition at 16 ppm ([10]; 16 ppm, read-out: % Inhibition): 0%
inhibition at 32 ppm ([10]; 32 ppm): 0%
inhibition at 64 ppm ([10]; 64 ppm, read-out: % Inhibition): 0%
effectiveness compared with chlortetracycline (in words) [11, 12]: considerably more effective
inhibition at 0.125 ppm ([11]; Campylobacter coli, 0.125 ppm): 100%
inhibition at 0.25 ppm ([11]; Campylobacter coli, 0.25 ppm): 100%
inhibition at 0.5 ppm ([11]; Campylobacter coli, 0.5 ppm): 100%
inhibition at 1 ppm ([11]; Campylobacter coli, 1 ppm): 100%
inhibition at 2 ppm ([11]; Campylobacter coli, 2 ppm): 100%
inhibition at 4 ppm ([11]; Campylobacter coli, 4 ppm): 100%
inhibition at 8 ppm ([11]; Campylobacter coli, 8 ppm): 100%
inhibition at 16 ppm ([11]; Campylobacter coli, 16 ppm): 100%
inhibition at 32 ppm ([11]; Campylobacter coli, 32 ppm): 100%
inhibition at 64 ppm ([11]; Campylobacter coli, 64 ppm): 100%
